In data set [1] the target is T1, hα7-wt nAChR-expressing GH4Cl cells (Homo sapiens, UniProt P36544).
T1 construct: expressed in transfected cells
In words: Patch-clamp current recording (whole-cell), potentiation of choline 1 mM response, PAM type. It counts as cell-based. Details: key to Pam type: Type 0 compounds minimally enhance the effect size of the current elicited by 1 mM choline.; Type 1 compounds enhance the effect size of the current elicited by 1 mM choline but minimally alter the kinetics of the receptor.; Type 2 compounds enhance the effect size of the current elicited by 1 mM choline while reducing the rate and/or the extent of desensitization.; Type 3 compounds enhance the effect size of the current elicited by 1 mM choline. When tested at higher concentrations up to 10 μM they completely inhibit desensitization, in particular a 1 mM choline application of 250 milliseconds.; Type 4 compounds allow for an initial desensitization of the receptor followed by a re-opening of the receptor during agonist application. The conditions noted are these: for EC50: according to Ex. D.2, "<5" = no top plateau reached at maximal concentration, read-out: Potency (pEC50) (converted); for Pam type: patch-clamp current recording, 1 mM choline. Here is the method: The compounds of the present invention are classified as type 1-4, based on qualitative kinetic properties, as determined by whole-cell voltage-clamp recordings. This classification is based on the effect of an α7 PAM compound, as described hereinbefore, on the signal elicited by an agonist application. In particular, said agonist is choline at a concentration of 1 mM. In a preferred experimental setting, said α7 PAM compound and choline are simultaneously applied to the cell, as described hereinafter. Desensitization is defined as the closure of the receptor upon activation during the application of the agonist in whole-cell voltage-clamp electrophysiology measurements seen as the reduction of the […] current after initial activation by the agonist.
The definition of the PAM types 1-4 is described hereinafter: • Type 0 compounds minimally enhance the effect size of the current elicited by 1 mM choline. • Type 1 compounds enhance the effect size of the current elicited by 1 mM choline but minimally alter the kinetics of the receptor. In particular, the rate and the extent of desensitization, elicited by the agonist, is not affected. The compound-modulated response to 1 mM choline, therefore, is a close to linear scaling of the 1 mM choline response in absence of the α7 PAM compound. • Type 2 compounds enhance the effect size of the current elicited by 1 mM choline while reducing the rate and/or the extent of desensitization. • Type 3 compounds enhance the effect size of the current elicited by 1 mM choline. […] At low-potency concentrations of the α7 PAM compound, the agonist-induced activation, which is followed by desensitization, can still be separated from the compound-induced re-opening as an initial inward current-maximum. At higher potency concentrations of the α7 PAM compound, the re-opening occurs faster than the closure due to desensitization so that the initial current-maximum disappears.
Patch-clamp Current Recording
Patch-clamp recording from mammalian cells has provided a powerful means of assessing the function of membrane-bound proteins thought to be subunits of ligand-gated ion channels. Activation of such proteins by endogenous or exogenous ligands cause opening of a pore associated with the receptor through which ions flow down their electrochemical gradient. In the case of the hα7-wt nAChR-expressing GH4Cl recombinant cell line the preferential permeability to calcium of this receptor means that calcium flows into the cell upon activation by ACh, choline and other nicotinic ligands giving rise to a calcium current. Since this receptor rapidly desensitizes in the presence of agonist it is important an application system is used which is capable of very rapid switching of solutions (<100 ms) to prevent partial or full desensitisation of receptor responses coincident with the time of agonist application. Consequently, a second convenient technique to assess the enhancement of nicotinic efficacy is patch-clamp recording from hα7-wt nAChR-expressing GH4Cl cells coupled with a rapid-application system.
• a) Assay buffers • The external recording solution consisted of 152 mM NaCl, 5 mM KCl, 1 mM MgCl2, 1 mM Calcium, 10 mM HEPES; pH 7.3. The internal recording solution consisted of 140 mM CsCl, 10 mM HEPES, 10 mM EGTA, 1 mM MgCl2, pH 7.3. • b) Patch-clamp recording was carried out using a Patch-clamp amplifier (Multiclamp 700A, Axon Instruments, Calif., USA). hα7-wt nAChR-expressing GH4Cl cells were patch-clamp in the whole cell configuration (Hamill et al, 1981) with a borosilicate glass electrode of 1.5-3 MΩ tip resistance when filled with the internal recording solution. Recordings were made on cells with membrane resistance >500 MΩ and more preferably 1GΩ and series resistance <15 MΩ with at least 60% series resistance compensation. […]
(In general: Patch clamp records ionic current or voltage across a cell membrane.)

For orientation: melting point means the temperature of the solid-liquid transition.

Structures are written as SMILES.

T1 sequence (P36544 23-502): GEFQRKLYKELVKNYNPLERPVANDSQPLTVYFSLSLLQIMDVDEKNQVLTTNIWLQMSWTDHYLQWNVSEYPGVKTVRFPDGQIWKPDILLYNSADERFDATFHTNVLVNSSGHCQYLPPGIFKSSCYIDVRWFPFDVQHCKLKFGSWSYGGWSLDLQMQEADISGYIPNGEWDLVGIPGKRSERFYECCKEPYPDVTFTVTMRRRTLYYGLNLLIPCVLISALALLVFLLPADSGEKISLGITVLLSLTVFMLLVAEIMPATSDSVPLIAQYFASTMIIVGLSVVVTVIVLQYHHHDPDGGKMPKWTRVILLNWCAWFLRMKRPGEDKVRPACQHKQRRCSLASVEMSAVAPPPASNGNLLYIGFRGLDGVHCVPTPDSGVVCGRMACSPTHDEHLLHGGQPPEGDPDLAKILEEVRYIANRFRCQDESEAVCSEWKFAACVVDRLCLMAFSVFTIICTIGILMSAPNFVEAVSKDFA

Consider `CNC(=O)Cc1nc(Nc2ccc(F)c(C(F)(F)F)c2)nn1-c1ccnc(C)c1` [E35], for which the melting point was 272.9 °C. In data set [1], the EC50 is 1170 nM and the Pam type came out at 3.

In turn, `CNC(=O)CCc1nc(Nc2ccc(F)c(C(F)(F)F)c2)nn1-c1cccc(OC)c1` [E42] yielded a melting point of 170.9 °C. Further, the EC50 in data set [1] is 2750 nM.

In turn, `CNC(=O)CCc1nc(Nc2cccc(OC(F)(F)F)c2)nn1-c1ccnc(C)c1` [E54] came in with a melting point of 153.7 °C. For the same molecule, in data set [1], the EC50 is 2290 nM and the Pam type amounted to 2.

Regarding `CN(C)C(=O)CCc1nc(Nc2ccc(F)c(F)c2)nn1-c1ccccc1Cl` [E57], the melting point was 179.6 °C. Besides, in data set [1], the EC50 was 1070 nM and the Pam type amounted to 3.

`CN(C)C(=O)CCc1nc(Nc2ccc(F)c(F)c2)nn1-c1cccc(Cl)c1` [E58] gave a melting point of 165.4 °C. In data set [1], the EC50 is 339 nM.

In turn, `CN(C)C(=O)CCc1nc(Nc2ccc(F)c(F)c2)nn1-c1ccc(Cl)cc1` [E59] gave a melting point of 145.1 °C. In addition, in data set [1], the EC50 was 245 nM and the Pam type was 4.

On to `COc1cccc(-n2nc(Nc3cccc(OC(F)(F)F)c3)nc2CCC(=O)N(C)C)c1` [E60], for which the melting point amounted to 133.5 °C. Further, in data set [1], the EC50 is 282 nM and the Pam type amounted to 0.

In the case of `COc1cccc(-n2nc(Nc3ccc(F)c(C(F)(F)F)c3)nc2CCC(=O)N(C)C)c1` [E61], the melting point stood at 173.6 °C. Further, the EC50 in data set [1] was 85.1 nM.

`Cc1cc(-n2nc(Nc3cccc(OC(F)(F)F)c3)nc2CCC(=O)N(C)C)ccn1` [E73] yielded a melting point of 215.4 °C. Besides, in data set [1], the EC50 was 135 nM and the Pam type was found to be 4.

Consider `CN(C)C(=O)CCc1nc(Nc2ccc(F)c(C(F)(F)F)c2)nn1-c1ccncc1Cl` [E74], for which the melting point is 181.7 °C. Further, in data set [1], the EC50 was 72.4 nM and the Pam type is listed as 4.

`Cc1ccc(-n2nc(Nc3cccc(OC(F)(F)F)c3)nc2CCC(=O)N(C)C)cn1` [E75] showed a melting point of 174.3 °C. In data set [1], the EC50 was 186 nM and the Pam type is 4.

Take `CN(C)C(=O)CCc1nc(Nc2cccc(OC(F)(F)F)c2)nn1-c1cccnc1Cl` [E76]: the melting point was 145.7 °C. Also, in data set [1], the EC50 is 407 nM.

Regarding `Cc1ncccc1-n1nc(Nc2ccc3c(c2)OC(F)(F)O3)nc1CCC(=O)N(C)C` [E116], the melting point is 151.7 °C. Also, the EC50 in data set [1] is 2950 nM.

As for `CN(C)C(=O)CCc1nc(Nc2ccc3c(c2)OC(F)(F)O3)nn1-c1cccnc1Cl` [E118], the melting point stood at 195.8 °C. Besides, the EC50 in data set [1] is 692 nM.

Molecule `Cc1cncc(-n2nc(Nc3ccc4c(c3)OC(F)(F)O4)nc2CCC(=O)N(C)C)c1` [E119] had a melting point of 141.1 °C. Also, in data set [1], the EC50 was 107 nM and the Pam type was found to be 4.

The molecule `CC[C@H](O)Cc1nc(Nc2cccc(Cl)c2)nn1-c1cc(C)nc(C)c1` [E129] had a melting point of 154.6 °C. Further, in data set [1], the EC50 is 245 nM and the Pam type is recorded as 2.

`CCc1cc(-n2nc(Nc3ccc(F)c(F)c3)nc2C[C@H](C)O)ccn1` [E131]: the melting point was 168 °C. In data set [1], the EC50 was 1380 nM and the Pam type was determined as 2.

Molecule `CC[C@H](O)Cc1nc(Nc2ccc(F)c(F)c2)nn1-c1cc(C)nc(C)c1` [E132] yielded a melting point of 180.6 °C. Moreover, in data set [1], the EC50 is 240 nM and the Pam type was determined as 2.

`CCc1cc(-n2nc(Nc3cc(OC)cc(C(F)(F)F)c3)nc2C[C@H](C)O)ccn1` [E133]: the melting point amounted to 156.2 °C. In addition, in data set [1], the EC50 was 363 nM and the Pam type is on record as 4.

Take `CC[C@@H](O)Cc1nc(Nc2ccc(F)c(F)c2)nn1-c1ccnc(C)c1` [E134]: the melting point turned out to be 175.8 °C. Further, in data set [1], the EC50 was 1050 nM and the Pam type is 2.

On to `COc1cc(Nc2nc(C[C@H](C)O)n(-c3ccnc(C)c3)n2)cc(C(F)(F)F)c1` [E135], for which the melting point is 196.3 °C. In addition, in data set [1], the EC50 is 550 nM and the Pam type is reported as 4.

For `CC[C@H](O)Cc1nc(Nc2cc(OC)cc(C(F)(F)F)c2)nn1-c1ccnc(C)c1` [E137, (alphaS)-alpha-Ethyl-3-[[3-methoxy-5-(trifluoromethyl)phenyl]amino]-1-(2-methyl-4-pyridinyl)-1H-1,2,4-triazole-5-ethanol], the melting point was found to be 174.1 °C. In addition, in data set [1], the EC50 is 105 nM and the Pam type came to 4.

As to `CCc1cc(-n2nc(Nc3ccc(F)c(F)c3)nc2C[C@@H](O)CC)ccn1` [E138], the melting point was 169.4 °C. In addition, in data set [1], the EC50 was 295 nM and the Pam type was determined as 2.

In turn, `CC[C@H](O)Cc1nc(Nc2cccc(Cl)c2)nn1-c1ccnc(C)c1` [E139] yielded a melting point of 126.7 °C. In data set [1], the EC50 was 324 nM and the Pam type came to 2.

For the molecule `CC[C@H](O)Cc1nc(Nc2ccc(F)c(F)c2)nn1-c1ccc(C)nc1` [E140], the melting point is 127.5 °C. For the same molecule, in data set [1], the EC50 is 1620 nM and the Pam type was determined as 2.

`CC[C@H](O)Cc1nc(Nc2cc(OC)cc(C(F)(F)F)c2)nn1-c1ccc(C)nc1` [E142] had a melting point of 154.7 °C. In data set [1], the EC50 is 182 nM and the Pam type is 4.

The molecule `COc1cc(Nc2nc(C[C@H](C)O)n(-c3ccc(C)nc3)n2)cc(C(F)(F)F)c1` [E143] came in with a melting point of 137.5 °C. Also, in data set [1], the EC50 is 912 nM and the Pam type worked out at 4.

With `COc1cc(Nc2nc(C[C@H](C)O)n(-c3cccnc3)n2)cc(C(F)(F)F)c1` [E144], the melting point is 145.5 °C. For the same molecule, the EC50 in data set [1] was 2950 nM.

In the case of `CC[C@H](O)Cc1nc(Nc2ccc(F)c(F)c2)nn1-c1cccnc1` [E145], the melting point was found to be 144.2 °C. In data set [1], the EC50 was 2450 nM.

Consider `COc1ccc(-n2nc(Nc3cc(OC)cc(C(F)(F)F)c3)nc2C[C@H](C)O)cc1` [E146], for which the melting point was determined as 135.4 °C. Besides, the EC50 in data set [1] is about 363 nM.

`CC[C@H](O)Cc1nc(Nc2ccc(F)c(F)c2)nn1-c1cccc(OC)c1` [E149] came in with a melting point of 144.1 °C. In data set [1], the EC50 was 1380 nM.

For the molecule `Cc1cc(-n2nc(Nc3cccc(Cl)c3F)nc2CC(=O)NC2CC2)cc(C)n1` [E150], the melting point amounted to 248.8 °C. In data set [1], the EC50 is 417 nM and the Pam type amounted to 2.

Molecule `Cc1cc(-n2nc(Nc3cccc(Cl)c3F)nc2CC(=O)NC2CCC2)cc(C)n1` [E152] returned a melting point of 234 °C. Further, in data set [1], the EC50 is 245 nM and the Pam type came to 2.

The molecule `CCNC(=O)Cc1nc(Nc2cccc(Cl)c2F)nn1-c1cc(C)nc(C)c1` [E153, 3-[(3-chloro-2-fluorophenyl)amino]-1-(2,6-dimethyl-4-pyridinyl)-N-ethyl-1H-1,2,4-triazole-5-acetamide] registered a melting point of 231.4 °C. In data set [1], the EC50 was 562 nM and the Pam type is listed as 2.

Source of the values: patent US8778974B2, “Trisubstituted 1,2,4 triazoles” (Janssen Pharmaceutica NV, priority 2008, dated 2014).
